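At the GI50, growth is halved. TGI marks complete inhibition of growth.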
How the values were obtained:
Assay in all cases: NCI tumour cell line growth inhibition, 384-well format
[1] = tested on: 786-0 renal
[2] = tested on: A498 renal
[3] = tested on: ACHN renal
[4] = tested on: CCRF-CEM leukemia
[5] = tested on: COLO 205 colon
[6] = tested on: DU-145 prostate
[7] = tested on: EKVX NSCLC
[8] = tested on: HCT-116 colon
[9] = tested on: HCT-15 colon
[10] = tested on: HL-60(TB) leukemia
[11] = tested on: HOP-62 NSCLC
[12] = tested on: HS 578T breast
[13] = tested on: HT29 colon
[14] = tested on: IGROV1 ovarian
[15] = tested on: K-562 leukemia
[16] = tested on: LOX IMVI melanoma
[17] = tested on: M14 melanoma
[18] = tested on: MALME-3M melanoma
[19] = tested on: MCF7 breast
[20] = tested on: MDA-MB-435 melanoma
[21] = tested on: MDA-MB-468 breast
[22] = tested on: MOLT-4 leukemia
[23] = tested on: NCI-H226 lung
[24] = tested on: NCI-H23 lung
[25] = tested on: NCI-H322M lung
[26] = tested on: NCI-H460 NSCLC
[27] = tested on: NCI/ADR-RES ovarian
[28] = tested on: OVCAR-3 ovarian
[29] = tested on: OVCAR-4 ovarian
[30] = tested on: OVCAR-5 ovarian
[31] = tested on: OVCAR-8 ovarian
[32] = tested on: PC-3 prostate
[33] = tested on: RPMI-8226 leukemia
[34] = tested on: RXF 393 renal
[35] = tested on: SF-295 CNS
[36] = tested on: SF-539 CNS
[37] = tested on: SK-MEL-28 melanoma
[38] = tested on: SK-MEL-5 melanoma
[39] = tested on: SK-OV-3 ovarian
[40] = tested on: SN12C renal
[41] = tested on: SNB-75 CNS
[42] = tested on: SR leukemia
[43] = tested on: TK-10 renal
[44] = tested on: U251 glioblastoma
[45] = tested on: UACC-257 melanoma
[46] = tested on: UACC-62 melanoma
[47] = tested on: UO-31 renal

`CCS(=O)(=O)N1CCC(C(C)n2c(C)c(C(=O)NCc3c(OC)cc(C)[nH]c3=O)c3ccccc32)CC1` (centres undefined) showed a GI50 [1] greater than 100 µM, a TGI [1] greater than 100 µM and a GI50 [2] greater than 100 µM. The TGI [2] was greater than 100 µM, the GI50 [3] was greater than 100 µM and the TGI [3] was greater than 100 µM. It also gave a GI50 [4] greater than 100 µM, a TGI [4] greater than 100 µM and a GI50 [5] greater than 100 µM. It also gave a TGI [5] greater than 100 µM, a GI50 [6] greater than 100 µM and a TGI [6] greater than 100 µM. It also gave a GI50 [7] greater than 100 µM, a TGI [7] greater than 100 µM and a GI50 [8] greater than 100 µM. It also gave a TGI [8] greater than 100 µM, a GI50 [9] greater than 100 µM and a TGI [9] greater than 100 µM. It also gave a GI50 [10] greater than 100 µM, a TGI [10] greater than 100 µM and a GI50 [11] greater than 87.9 µM. The TGI [11] was greater than 100 µM, the GI50 [12] was greater than 100 µM and the TGI [12] was greater than 100 µM. The GI50 [13] was greater than 100 µM, the TGI [13] was greater than 100 µM and the GI50 [14] was greater than 100 µM. For the same compound, the TGI [14] was greater than 100 µM, the GI50 [15] was greater than 100 µM and the TGI [15] was greater than 100 µM. The GI50 [16] was greater than 78.6 µM, the TGI [16] was greater than 100 µM and the GI50 [17] was greater than 100 µM. The TGI [17] was greater than 100 µM, the GI50 [18] was greater than 100 µM and the TGI [18] was greater than 100 µM. For the same compound, the GI50 [19] was greater than 78.3 µM, the TGI [19] was greater than 100 µM and the GI50 [20] was greater than 100 µM. The TGI [20] was greater than 100 µM, the GI50 [21] was 40 µM and the TGI [21] was greater than 100 µM. The GI50 [22] was 42.4 µM, the TGI [22] was greater than 100 µM and the GI50 [23] was greater than 100 µM. It also gave a TGI [23] greater than 100 µM, a GI50 [24] greater than 100 µM and a TGI [24] greater than 100 µM. For the same compound, the GI50 [25] was greater than 100 µM, the TGI [25] was greater than 100 µM and the GI50 [26] was greater than 100 µM. It also gave a TGI [26] greater than 100 µM, a GI50 [27] greater than 100 µM and a TGI [27] greater than 100 µM. The GI50 [28] was greater than 100 µM, the TGI [28] was greater than 100 µM and the GI50 [29] was greater than 100 µM. For the same compound, the TGI [29] was greater than 100 µM, the GI50 [30] was greater than 100 µM and the TGI [30] was greater than 100 µM. The GI50 [31] was greater than 100 µM, the TGI [31] was greater than 100 µM and the GI50 [32] was greater than 100 µM. It also gave a TGI [32] greater than 100 µM, a GI50 [33] of 7.49 µM and a TGI [33] greater than 86.4 µM. The GI50 [34] was greater than 100 µM, the TGI [34] was greater than 100 µM and the GI50 [35] was greater than 100 µM. The TGI [35] was greater than 100 µM, the GI50 [36] was greater than 100 µM and the TGI [36] was greater than 100 µM. The GI50 [37] was greater than 100 µM, the TGI [37] was greater than 100 µM and the GI50 [38] was greater than 100 µM. The TGI [38] was greater than 100 µM, the GI50 [39] was greater than 100 µM and the TGI [39] was greater than 100 µM. For the same compound, the GI50 [40] was greater than 100 µM, the TGI [40] was greater than 100 µM and the GI50 [41] was greater than 100 µM. For the same compound, the TGI [41] was greater than 100 µM, the GI50 [42] was greater than 100 µM and the TGI [42] was greater than 100 µM. It also gave a GI50 [43] greater than 100 µM, a TGI [43] greater than 100 µM and a GI50 [44] greater than 100 µM. It also gave a TGI [44] greater than 100 µM, a GI50 [45] greater than 100 µM and a TGI [45] greater than 100 µM. The GI50 [46] was greater than 100 µM, the TGI [46] was greater than 100 µM and the GI50 [47] was greater than 100 µM. For the same compound, the TGI [47] was greater than 100 µM.
